Test results from ChEMBL document CHEMBL1128820, “Synthesis and evaluation of nitro 5-deazaflavins as novel bioreductive antitumor agents” (Bioorg Med Chem Lett, 1995).

Assays:
Type in all cases: functional, cell-based
[1] = tested on: L1210; experiment: In vitro antitumor activity against murine lymphoma L1210 cells by MTT assay.; conditions: Mus musculus
[2] = tested on: KB; experiment: In vitro antitumor activity against human epidermoid carcinoma KB cells by MTT assay.
[3] = tested on: KB; experiment: In vitro antitumor activity against human epidermoid carcinoma KB cells by using MTT assay; No significant cytotoxicity
[4] = tested on: L1210; experiment: In vitro antitumor activity against murine lymphoma L1210 cells by using MTT assay; No significant cytotoxicity; conditions: Mus musculus

Row | IC50 [1] | IC50 [2] | Structure (SMILES) | IC50 [3] | IC50 [4]
1 | 0.4 µM | 3.2 µM | CCCCCCCCCCCCn1c2nc(=O)[nH]c(=O)c-2cc2c([N+](=O)[O-])cccc21 | – | –
2 | – | – | CCCCCCCCCCCCn1c2nc(=O)n(C)c(=O)c-2cc2cccnc21 | > 200 µM | > 200 µM
3 | 1.6 µM | 6.8 µM | CCCCCCCCCCCCn1c2nc(=O)n(C)c(=O)c-2cc2c([N+](=O)[O-])cccc21 | – | –
4 | – | – | CCCCCCCCCCCCn1c2nc(=O)n(C)c(=O)c-2cc2ccccc21 | > 200 µM | > 200 µM
5 | – | – | CCCCCCCCCCCCn1c2nc(=O)n(C)c(=O)c-2cc2ncccc21 | > 200 µM | > 200 µM
6 | 9.6 µM | 7.6 µM | CCCCCCCCn1c2nc(=O)n(-c3ccccc3)c(=O)c-2cc2cc([N+](=O)[O-])ccc21 | – | –
7 | 2.6 µM | 8.4 µM | CCCCCCCCn1c2nc(=O)n(-c3ccccc3)c(=O)c-2cc2c([N+](=O)[O-])cccc21 | – | –
8 | – | – | CCCCCCCCCCCCn1c2nc(=O)[nH]c(=O)c-2cc2ccc(C(F)(F)F)cc21 | > 200 µM | > 200 µM
9 | – | – | CCCCCCCCn1c2nc(=O)n(CC(=O)OCC)c(=O)c-2cc2ccccc21 | > 200 µM | > 200 µM
10 | 6.8 µM | 26.4 µM | CCCCCCCCCCCCn1c2nc(=O)[nH]c(=O)c-2cc2cc([N+](=O)[O-])ccc21 | – | –
11 | 2.5 µM | 12.8 µM | CCCCCCCCCCCCn1c2nc(=O)[nH]c(=O)c-2cc2ccc([N+](=O)[O-])cc21 | – | –
12 | 4 µM | 3.6 µM | CCCCCCCCn1c2nc(=O)n(CC(=O)OCC)c(=O)c-2cc2cccc([N+](=O)[O-])c21 | – | –
13 | 21.6 µM | 15.8 µM | CCCCCCCCCCCCn1c2nc(=O)n(C)c(=O)c-2cc2cc([N+](=O)[O-])ccc21 | – | –
14 | 5.2 µM | 8 µM | CCCCCCCCCCCCn1c2nc(=O)n(C)c(=O)c-2cc2ccc([N+](=O)[O-])cc21 | – | –
15 | – | – | CCCCCCCCn1c2nc(=O)n(-c3ccccc3)c(=O)c-2cc2cccnc21 | > 200 µM | > 200 µM
16 | 2.6 µM | 12.4 µM | CCCCCCCCn1c2nc(=O)n(-c3ccccc3)c(=O)c-2cc2ccc([N+](=O)[O-])cc21 | – | –
17 | 1.5 µM | 6 µM | CCCCCCCCn1c2nc(=O)n(-c3ccccc3)c(=O)c-2cc2cccc([N+](=O)[O-])c21 | – | –
18 | – | – | CCCCCCCCCCCCn1c2nc(=O)[nH]c(=O)c-2cc2cc(C(F)(F)F)ccc21 | > 200 µM | > 200 µM
19 | 12 µM | 30 µM | CCCCCCCCn1c2nc(=O)n(CC(=O)OCC)c(=O)c-2cc2cc([N+](=O)[O-])ccc21 | – | –
20 | 3 µM | 7.6 µM | CCCCCCCCn1c2nc(=O)n(CC(=O)OCC)c(=O)c-2cc2c([N+](=O)[O-])cccc21 | – | –
21 | 7.8 µM | 20 µM | CCCCCCCCCCCCn1c2nc(=O)n(C)c(=O)c-2cc2cccc([N+](=O)[O-])c21 | – | –
22 | 0.6 µM | 0.4 µM | CO[C@@]12[C@H](COC(N)=O)C3=C(C(=O)C(C)=C(N)C3=O)N1C[C@@H]1N[C@@H]12 [MITOMYCIN] | – | –
23 | 8.4 µM | 7.6 µM | CCCCCCCCn1c2nc(=O)n(CC(=O)OCC)c(=O)c-2cc2ccc([N+](=O)[O-])cc21 | – | –
24 | – | – | CCCCCCCCn1c2nc(=O)n(-c3ccccc3)c(=O)c-2cc2ncccc21 | > 200 µM | > 200 µM
25 | – | – | CCCCCCCCCCCCn1c2nc(=O)[nH]c(=O)c-2cc2ccccc21 | > 200 µM | > 200 µM
26 | – | – | CCCCCCCCn1c2nc(=O)n(-c3ccccc3)c(=O)c-2cc2ccccc21 | > 200 µM | > 200 µM
27 | 1.8 µM | 2.6 µM | CCCCCCCCCCCCn1c2nc(=O)[nH]c(=O)c-2cc2cccc([N+](=O)[O-])c21 | – | –
